The source of these data is patent publication US9856245B2, “GPR40 agonists for the treatment of type II diabetes” (Janssen Pharmaceutica NV, priority 2015, dated 2018).

Several values for one entry are separate records, joined by “and”; a condition that tells them apart may be missing. Equal values may be shown once.

T1 sequence (O14842 whole entry): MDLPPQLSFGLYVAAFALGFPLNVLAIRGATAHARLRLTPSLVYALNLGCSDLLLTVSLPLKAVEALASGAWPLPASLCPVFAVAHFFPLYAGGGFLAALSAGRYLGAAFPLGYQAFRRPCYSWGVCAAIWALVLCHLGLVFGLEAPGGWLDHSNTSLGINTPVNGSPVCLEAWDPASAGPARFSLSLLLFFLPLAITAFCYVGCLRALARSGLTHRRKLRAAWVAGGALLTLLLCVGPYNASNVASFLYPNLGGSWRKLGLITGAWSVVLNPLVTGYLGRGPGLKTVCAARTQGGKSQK

The assay has as its target T1, human GPR40 (Homo sapiens, UniProt O14842).
T1 construct: expressed in transfected cells
Briefly: GPR40 calcium flux assay (hGPR40 Ca2+ Assay). Format: cell-based. The settings on record: transfected HEK293 cells stably expressing human GPR40; Fluo 8 calcium dye; multiple values = repeated testing; read-out: hGPR40 Ca^2+ Assay EC50. On the procedure: Compounds were tested in a calcium flux assay using transfected HEK293 cells stably expressing either human GPR40 or rat GPR40. Human GPR40 expressing cells were cultured in DMEM-High Glucose media supplemented with 10% fetal bovine serum, 1× L-Glutamine, 1× Penicillin/Streptomycin and 500 μg/mL G418. Rat GPR40 expressing cells were cultured in DMEM-High Glucose media supplemented with 10% fetal bovine serum and 1 μg/mL puromycin. Cells were plated into poly-D-lysine coated 384-well plates and cultured overnight in a 37° C. humidified tissue culture incubator under 5% CO2/[…] atmosphere. On the day of the experiment, the culture media was replaced with assay buffer (HBSS, 20 mM HEPES, 0.1% BSA) and the cells incubated at 37° C. for 1 h. Calcium-sensitive fluorescent dye (Fluo 8 No-Wash Calcium Dye, ABD Bioquest) was then added and the cells incubated for another 30 min at 37° C. followed by 15 min at room temperature while protected from the light. The cell plate and a plate of diluted compounds of Formula (III) were loaded into a fluorescent plate reader that added compounds onto the cells while measuring the fluorescence intensity of each well. The plate reader recorded fluorescence intensity at 1 second intervals for 8 min and provided the data for analysis in an Excel format. EC50 values were calculated using Prism (GraphPad) software.
Take `COc1ccc(F)c(-n2ncc(COc3cccc([C@@H](CC(=O)O)C4CC4)c3)c2-c2ccc(C)s2)c1` [Cpd 94, (3S)-3-cyclopropyl-3-[3-[[1-(2-fluoro-5-methoxy-phenyl)-5-(5-methyl-2-thienyl)pyrazol-4-yl]methoxy]phenyl]propanoic acid]: the EC50 is 121 nM and 60 nM. For `COc1ccc(F)c(-n2cnc(COc3cccc([C@@H](CC(=O)O)C4CC4)c3)c2CC(C)C)c1` [Cpd 93, (3S)-3-cyclopropyl-3-[3-[[1-(2-fluoro-5-methoxy-phenyl)-5-isobutyl-imidazol-4-yl]methoxy]phenyl]propanoic acid], the concentration for a half-maximal effect (EC50) was 136 nM and 132 nM. Take `COc1ccc(F)c(-n2nnc(COc3cccc([C@@H](CC(=O)O)C4CC4)c3)c2C2CC2)c1` [Cpd 85, (3S)-3-cyclopropyl-3-[3-[[5-cyclopropyl-1-(2-fluoro-5-methoxy-phenyl)triazol-4-yl]methoxy]phenyl]propanoic acid]: the half-maximal effective concentration (EC50) is 65 nM and 63 nM. As to `COc1ccc(F)c(-n2nnc(COc3cccc([C@@H](CC(=O)O)C4CC4)c3)c2N2CC3(CCC3)C2)c1` [Cpd 68, (3S)-3-[3-[[5-(6-azaspiro[3.3]heptan-6-yl)-1-(2-fluoro-5-methoxy-phenyl)triazol-4-yl]methoxy]phenyl]-3-cyclopropyl-propanoic acid], the concentration for a half-maximal effect (EC50) is 7 nM and 12 nM and 11 nM. The figure for `COc1ccc(F)c(-n2nnc(COc3cccc([C@@H](CC(=O)O)C4CC4)c3)c2C=C(C)C)c1` [Cpd 84, (3S)-3-cyclopropyl-3-[3-[[1-(2-fluoro-5-methoxy-phenyl)-5-(2-methylprop-1-enyl)triazol-4-yl]methoxy]phenyl]propanoic acid] is 38 nM and 31 nM and 37 nM (2×). The figure for `COc1ccc(F)c(-n2nnc(COc3cc(C(CC(=O)O)C4CC4)ccn3)c2C2=CCCC2(C)C)c1` (racemic) [Cpd 63, 3-cyclopropyl-3-[2-[[5-(5,5-dimethylcyclopenten-1-yl)-1-(2-fluoro-5-methoxy-phenyl)triazol-4-yl]methoxy]-4-pyridyl]propanoic acid] is 1 nM. The value for `COc1ccc(F)c(-n2nnc(COc3cccc([C@@H](CC(=O)O)C4CC4)c3)c2OC(C)C)c1` [Cpd 98, (3S)-3-cyclopropyl-3-[3-[[1-(2-fluoro-5-methoxy-phenyl)-5-isopropoxy-triazol-4-yl]methoxy]phenyl]propanoic acid] was 47 nM and 36 nM. Consider `COc1ccc(F)c(-n2nnc(COc3cccc([C@@H](CC(=O)O)C4CC4)c3)c2C2=CCCC2(C)C)c1` [Cpd 86, (3S)-3-cyclopropyl-3-[3-[[5-(5,5-dimethylcyclopenten-1-yl)-1-(2-fluoro-5-methoxy-phenyl)triazol-4-yl]methoxy]phenyl]propanoic acid], for which the EC50 was 4 nM and 2 nM. The value for `COc1ccc(F)c(-n2nnc(/C=C/c3cccc([C@@H](CC(=O)O)C4CC4)c3)c2C2CC2)c1` [Cpd 74, (3S)-3-cyclopropyl-3-[3-[(E)-2-[5-cyclopropyl-1-(2-fluoro-5-methoxy-phenyl)triazol-4-yl]vinyl]phenyl]propanoic acid] was 38 nM. The figure for `COc1ccc(F)c(-n2ncc(COc3cccc([C@@H](CC(=O)O)C4CC4)c3)c2Br)c1` [Cpd 90, (3S)-3-[3-[[5-bromo-1-(2-fluoro-5-methoxy-phenyl)pyrazol-4-yl]methoxy]phenyl]-3-cyclopropyl-propanoic acid] is 86 nM and 83 nM; for `COc1ccc(F)c(-n2ncc(COc3cccc([C@@H](CC(=O)O)C4CC4)c3)c2-c2ccc(F)cc2F)c1` [Cpd 95, (3S)-3-cyclopropyl-3-[3-[[5-(2,4-difluorophenyl)-1-(2-fluoro-5-methoxy-phenyl)pyrazol-4-yl]methoxy]phenyl]propanoic acid] it is 65 nM and 55 nM; for `COc1ccc(F)c(-n2ncc(CCc3cccc(C(CC(=O)O)C4CC4)c3)c2C2CC2)c1` (stereo not shown) [Cpd 77, 3-cyclopropyl-3-[3-[2-[5-cyclopropyl-1-(2-fluoro-5-methoxy-phenyl)pyrazol-4-yl]ethyl]phenyl]propanoic acid] it is 66 nM. The value for `COc1ccc(F)c(-n2cc(COc3cccc([C@@H](CC(=O)O)C4CC4)c3)cn2)c1` [Cpd 72, (3S)-3-cyclopropyl-3-[3-[[1-(2-fluoro-5-methoxy-phenyl)pyrazol-4-yl]methoxy]phenyl]propanoic acid] was 24 nM and 45 nM and 39 nM; that for `COc1ccc(F)c(-n2ncc(COc3cc(C(CC(=O)O)C4CC4)c(Cl)cn3)c2C2=CCCC2(C)C)c1` (stereo not shown) [Cpd 71, 3-[5-chloro-2-[[5-(5,5-dimethylcyclopenten-1-yl)-1-(2-fluoro-5-methoxy-phenyl)pyrazol-4-yl]methoxy]-4-pyridyl]-3-cyclopropyl-propanoic acid] was 24 nM; that for `COc1ccc(F)c(-n2nnc(COc3cccc([C@@H](CC(=O)O)C4CC4)c3)c2N2CCCCC2)c1` [Cpd 44, (3S)-3-cyclopropyl-3-[3-[[1-(2-fluoro-5-methoxy-phenyl)-5-(1-piperidyl)triazol-4-yl]methoxy]phenyl]propanoic acid] was 14 nM. As to `COc1ccc(F)c(-n2nnc(COc3cccc([C@@H](CC(=O)O)C4CC4)c3)c2C)c1` [Cpd 82, (3S)-3-cyclopropyl-3-[3-[[1-(2-fluoro-5-methoxy-phenyl)-5-methyl-triazol-4-yl]methoxy]phenyl]propanoic acid], the EC50 is 261 nM and 248 nM. The value for `COc1ccc(F)c(-n2nnc(COc3cc([C@@H](CC(=O)O)C4CC4)ccn3)c2C2=CCCC2(C)C)c1` [Cpd 64, (3S)-3-cyclopropyl-3-[2-[[5-(5,5-dimethylcyclopenten-1-yl)-1-(2-fluoro-5-methoxy-phenyl)triazol-4-yl]methoxy]-4-pyridyl]propanoic acid] was 1 nM; that for `COc1ccc(F)c(-n2cnc(COc3cccc([C@@H](CC(=O)O)C4CC4)c3)c2C=C(C)C)c1` [Cpd 91, (3S)-3-cyclopropyl-3-[3-[[1-(2-fluoro-5-methoxy-phenyl)-5-(2-methylprop-1-enyl)imidazol-4-yl]methoxy]phenyl]propanoic acid] was 477 nM and 413 nM. The value for `COc1ccc(F)c(-n2ncc(COc3cccc([C@@H](CC(=O)O)C4CC4)c3)c2C2CC2)c1` [Cpd 69, (3S)-3-cyclopropyl-3-[3-[[5-cyclopropyl-1-(2-fluoro-5-methoxy-phenyl)pyrazol-4-yl]methoxy]phenyl]propanoic acid] was 15 nM and 21 nM and 17 nM. Turning to `COc1ccc(F)c(-n2nnc(COc3cc(C(CC(=O)O)C4CC4)c(Cl)cn3)c2C2=CCCC2(C)C)c1` (stereo not shown) [Cpd 78, 3-[5-chloro-2-[[5-(5,5-dimethylcyclopenten-1-yl)-1-(2-fluoro-5-methoxy-phenyl)triazol-4-yl]methoxy]-4-pyridyl]-3-cyclopropyl-propanoic acid], the EC50 came out at 69 nM. The value for `COc1ccc(F)c(-n2ncc(COc3cccc([C@@H](CC(=O)O)C4CC4)c3)c2-c2cc(C)cc(C)c2)c1` [Cpd 96, (3S)-3-cyclopropyl-3-[3-[[5-(3,5-dimethylphenyl)-1-(2-fluoro-5-methoxy-phenyl)pyrazol-4-yl]methoxy]phenyl]propanoic acid] was 25 nM and 23 nM; that for `COc1cc(-n2ncc(COc3cccc([C@@H](CC(=O)O)C4CC4)c3)c2C2CC2)c(F)cn1` [Cpd 70, (3S)-3-cyclopropyl-3-[3-[[5-cyclopropyl-1-(5-fluoro-2-methoxy-4-pyridyl)pyrazol-4-yl]methoxy]phenyl]propanoic acid] was 16 nM. The value for `COc1ccc(F)c(-n2nnc(CCc3cccc([C@@H](CC(=O)O)C4CC4)c3)c2C2CC2)c1` [Cpd 79, (3S)-3-cyclopropyl-3-[3-[2-[5-cyclopropyl-1-(2-fluoro-5-methoxy-phenyl)triazol-4-yl]ethyl]phenyl]propanoic acid] was 103 nM. The value for `COc1ccc(F)c(-n2nnc(COc3cccc([C@@H](CC(=O)O)C4CC4)c3)c2N2CCOCC2)c1` [Cpd 80, (3S)-3-cyclopropyl-3-[3-[[1-(2-fluoro-5-methoxy-phenyl)-5-morpholino-triazol-4-yl]methoxy]phenyl]propanoic acid] was 273 nM. In the case of `COc1ccc(F)c(-n2nnc(COc3cccc([C@@H](CC(=O)O)C4CC4)c3)c2-c2ccc(C)s2)c1` [Cpd 88, (3S)-3-cyclopropyl-3-[3-[[1-(2-fluoro-5-methoxy-phenyl)-5-(5-methyl-2-thienyl)triazol-4-yl]methoxy]phenyl]propanoic acid], the half-maximal effective concentration (EC50) was 24 nM and 23 nM.

On to `COc1ccc(F)c(-n2ncc(COc3cccc([C@@H](CC(=O)O)C4CC4)c3)c2C2=CCCC2(C)C)c1` [Cpd 66, (3S)-3-cyclopropyl-3-[3-[[5-(5,5-dimethylcyclopenten-1-yl)-1-(2-fluoro-5-methoxy-phenyl)pyrazol-4-yl]methoxy]phenyl]propanoic acid], for which the 50% effective concentration (EC50) is 2 nM and 1 nM.

As for `COc1ccc(F)c(-n2nnc(COc3cccc([C@@H](CC(=O)O)C4CC4)c3)c2OC2CCCCC2)c1` [Cpd 97, (3S)-3-[3-[[5-(cyclohexoxy)-1-(2-fluoro-5-methoxy-phenyl)triazol-4-yl]methoxy]phenyl]-3-cyclopropyl-propanoic acid], the EC50 was 13 nM and 8 nM.

As to `COc1ccc(F)c(-n2ncc(COc3cccc([C@@H](CC(=O)O)C4CC4)c3)c2C=C(C)C)c1` [Cpd 89, (3S)-3-cyclopropyl-3-[3-[[1-(2-fluoro-5-methoxy-phenyl)-5-(2-methylprop-1-enyl)pyrazol-4-yl]methoxy]phenyl]propanoic acid], the EC50 is 11 nM and 9 nM.
